# Assay results as given in US11034648B2, “Cystobactamide derivatives” (priority 2017, dated 2021).
# How the values were obtained:
# E. faecalis = test: MIC, microbroth dilution susceptibility assay (Table 2b); format: cell-based; details: larger panel
# Procedure: (§1) Cystobactamid derivatives synthesized were tested against relevant Gram negative and positive bacteria of clinical interest. Experimental procedures used for the biological characterization of the compounds are the same as previously described in WO 2016/082934.
# (§2) Bacterial strains used in susceptibility assays (minimum inhibitory concentration, MIC) were either part of our internal strain collection or purchased from the German Collection of Microorganisms and Cell Cultures (Deutsche Sammlung von Mikroorganismen und Zellkulturen, DSMZ) and the American Type Culture Collection (ATCC). The susceptible E. coli strain (WT) and fluoroquinolone-resistant mutants E. coli WT-3 and WT-III were kindly provided by Prof Dr. P. Heisig, Pharmaceutical Biology and Microbiology, University of Hamburg, Germany. The efflux-deficient strain P. aeruginosa ΔmexAB was kindly provided by Prof Dr. S. Häußler, Institute for Molecular Bacteriology, TWINCORE, Hannover, Germany. All compounds were prepared as DMSO stocks and MIC values were determined in standard microbroth dilution assays in 96-well MTPs as described in Baumann et al., Angew Chem Int Ed Engl. 2014; 53(52):14605-9. In brief, overnight cultures of bacteria were diluted in either tryptic soy broth (TSB: 1.7% peptone casein, 0.3% peptone soymeal, 0.25% glucose, 0.5% NaCl, 0.25% K2HPO4; pH 7.3; S. pneumoniae and E. faecalis) or cation-adjusted Müller-Hinton Broth (BBL™, BD; all other bacteria) and adjusted to 10^4-10^6 cfu/mL. Bacteria were grown in the presence of the derivatives in serial dilution for approx. 16 h at 30-37° C. MIC values were determined and were defined as the antibiotic concentration at which no visual growth of bacteria was observed.
# P. aeruginosa ESBL 2 = test: as above; format: cell-based; details: larger panel
# Procedure: as §1, §2
# S. epidermidis = test: as above; format: cell-based; details: larger panel
# Procedure: as §1, §2
# C. freundii = test: as above; format: cell-based; details: larger panel
# Procedure: as §1, §2
# E. aerogenes = test: as above; format: cell-based; details: larger panel
# Procedure: as §1, §2
# E. cloacae = test: as above; format: cell-based; details: larger panel
# Procedure: as §1, §2
# S. marcescens = test: as above; format: cell-based; details: larger panel
# Procedure: as §1, §2
# K. pneumoniae = test: as above; format: cell-based; details: larger panel
# Procedure: as §1, §2
# A. baumannii = test: as above; format: cell-based; details: larger panel
# Procedure: as §1, §2
# P. aeruginosa ESBL 1 = test: as above; format: cell-based; details: larger panel
# Procedure: as §1, §2
# P. mirabilis = test: as above; format: cell-based; details: larger panel
# Procedure: as §1, §2
# P. vulgaris = test: as above; format: cell-based; details: larger panel
# Procedure: as §1, §2
# E. coli gyrase = target: T1, E. coli gyrase (Escherichia coli, UniProt P0AES4+P0AES6); test: E. coli gyrase supercoiling (sc) assay; format: biochemical; details: supercoiling assay kit, agarose gel quantification; read-out: Ec gyrase sc IC50
# T1 construct: purchased Inspiralis
# Procedure: The target activity on E. coli gyrase was assessed as described in Baumann et al., Angew Chem Int Ed Engl. 2014; 53(52):14605-9 using a commercial supercoiling (sc) assay kit from Inspiralis according to the manufacturer's instructions. The samples were separated on 0.8% (w/v) agarose gels and relaxed and supercoiled plasmid was visualized by ethidium bromide staining. Half-inhibitory concentrations (IC50) were calculated after image analysis and quantification (ImageJ) based on sigmoidal curve fitting (OriginPro).
# [1] = test system: E. coli WT-III [marRΔ74bp]; format: cell-based; details: fluoroquinolone-resistant mutant; Table 2a
# Procedure: as §1, §2
# A. baumannii DSM-30008 = test: MIC, microbroth dilution susceptibility assay; format: cell-based; details: large panel, Table 2a
# Method in brief: (§3)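 Overnight cultures were diluted in cation-adjusted Müller-Hinton broth to 10^4-10^6 cfu/mL and grown with serially diluted compounds (from DMSO stocks) for approx. 16 h at 30-37° C. MIC is the lowest concentration giving no visible growth.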
# E. coli WT = test: MIC, microbroth dilution susceptibility assay; format: cell-based
# Method in brief: as §3
# C. freundii DSM-30039 = test: MIC, microbroth dilution susceptibility assay; format: cell-based; details: large panel, Table 2a
# Method in brief: as §3
# P. vulgaris DSM-2140 = test: MIC, microbroth dilution susceptibility assay; format: cell-based; details: large panel, Table 2a
# Method in brief: as §3
# P. aeruginosa WT PA14 = test: MIC, microbroth dilution susceptibility assay; format: cell-based; details: small panel, Tables 1a/1b
# Method in brief: as §3
# S. pneumoniae DSM-20566 = test: MIC, microbroth dilution susceptibility assay; format: cell-based; details: large panel, Table 2a; TSB
# Method in brief: as §3
# P. mirabilis DSM-2140 = test: MIC, microbroth dilution susceptibility assay; format: cell-based; details: large panel, Table 2a
# Method in brief: as §3
# S. aureus ATCC-29213 = test: MIC, microbroth dilution susceptibility assay; format: cell-based; details: large panel, Table 2a
# Method in brief: as §3
# K. pneumoniae DSM-30104 = test: MIC, microbroth dilution susceptibility assay; format: cell-based; details: large panel, Table 2a
# Method in brief: as §3
# P. aeruginosa DSM-24600 = test: MIC, microbroth dilution susceptibility assay; format: cell-based; details: large panel, Table 2a
# Method in brief: as §3
# E. faecalis ATCC-29212 = test: MIC, microbroth dilution susceptibility assay; format: cell-based; details: large panel, Table 2a; TSB
# Method in brief: as §3
# E. cloacae DSM-30054 = test: MIC, microbroth dilution susceptibility assay; format: cell-based; details: large panel, Table 2a
# Method in brief: as §3
# S. marcescens DSM-30121 = test: MIC, microbroth dilution susceptibility assay; format: cell-based; details: large panel, Table 2a
# Method in brief: as §3
# S. aureus Newman = test: MIC, microbroth dilution susceptibility assay; format: cell-based; details: small panel, Tables 1a/1b
# Method in brief: as §3
# P. aeruginosa DSM-46316 = test: MIC, microbroth dilution susceptibility assay; format: cell-based; details: large panel, Table 2a
# Method in brief: as §3
# E. aerogenes DSM-30053 = test: MIC, microbroth dilution susceptibility assay; format: cell-based; details: large panel, Table 2a
# Method in brief: as §3
# S. epidermidis DSM-28765 = test: MIC, microbroth dilution susceptibility assay; format: cell-based; details: large panel, Table 2a
# Method in brief: as §3
# E. coli WT DSM-1116 = test: MIC, microbroth dilution susceptibility assay; format: cell-based; details: small panel, Tables 1a/1b; no visual growth after approx. 16 h
# Method in brief: as §3
# [2] = test system: E. coli WT-3 [gyrA(S83L,D87G)]; test: microbe, parasite or virus in culture; format: cell-based
# Method in brief: as §3
# E. coli ΔtolC = test: microbe, parasite or virus in culture; format: cell-based; details: small panel, Tables 1a/1b; no visual growth after approx. 16 h
# Method in brief: as §3
# P. aeruginosa ΔmexAB = test: microbe, parasite or virus in culture; format: cell-based; details: efflux-deficient strain; small panel, Tables 1a/1b
# Method in brief: as §3
structure (smiles),measurement,setting,value
"CO[C@@H](C(N)=O)[C@H](NC(=O)c1ccc(NC(=O)c2ccc([N+](=O)[O-])cc2)cc1)C(=O)Nc1ccc(C(=O)Nc2ccc(C(=O)Nc3ccc(C(=O)O)cc3)c(O)c2OC(C)C)cc1 [Cys861-2, reference compound]",MIC E. faecalis,E. faecalis,1 µg/mL
same,MIC P. aeruginosa ESBL 2,P. aeruginosa ESBL 2,2 µg/mL
same,MIC S. epidermidis,S. epidermidis,0.5 µg/mL
same,MIC C. freundii,C. freundii,0.125 µg/mL
same,MIC E. aerogenes,E. aerogenes,>64 µg/mL
same,MIC E. cloacae,E. cloacae,>64 µg/mL
same,MIC S. marcescens,S. marcescens,>64 µg/mL
same,MIC K. pneumoniae,K. pneumoniae,>64 µg/mL
same,MIC A. baumannii,A. baumannii,1 µg/mL
same,MIC P. aeruginosa ESBL 1,P. aeruginosa ESBL 1,4 µg/mL
same,MIC P. mirabilis,P. mirabilis,32 µg/mL
same,MIC P. vulgaris,P. vulgaris,0.25 µg/mL
same,IC50,E. coli gyrase,220 nM
same,MIC E. coli WT-III [marRΔ74bp],[1],0.5 µg/mL
same,MIC A. baumannii DSM-30008,A. baumannii DSM-30008,0.5 µg/mL
same,MIC E. coli WT,"E. coli WT; large panel, Table 2a",0.13 µg/mL
same,MIC E. coli WT,"E. coli WT; larger panel, Table 2b",0.06 µg/mL
same,MIC C. freundii DSM-30039,C. freundii DSM-30039,0.06 µg/mL
same,MIC P. vulgaris DSM-2140,P. vulgaris DSM-2140,0.25 µg/mL
same,MIC P. aeruginosa WT PA14,P. aeruginosa WT PA14,2 µg/mL
same,MIC S. pneumoniae DSM-20566,S. pneumoniae DSM-20566,0.06 µg/mL
same,MIC P. mirabilis DSM-2140,P. mirabilis DSM-2140,>64 µg/mL
same,MIC S. aureus ATCC-29213,S. aureus ATCC-29213,0.25 µg/mL
same,MIC K. pneumoniae DSM-30104,K. pneumoniae DSM-30104,>64 µg/mL
same,MIC P. aeruginosa DSM-24600,P. aeruginosa DSM-24600,1 µg/mL
same,MIC E. faecalis ATCC-29212,E. faecalis ATCC-29212,1 µg/mL
same,MIC E. cloacae DSM-30054,E. cloacae DSM-30054,64 µg/mL
same,MIC S. marcescens DSM-30121,S. marcescens DSM-30121,64 µg/mL
same,MIC S. aureus Newman,S. aureus Newman,0.5 µg/mL
same,MIC P. aeruginosa DSM-46316,P. aeruginosa DSM-46316,2 µg/mL
same,MIC E. aerogenes DSM-30053,E. aerogenes DSM-30053,>64 µg/mL
same,MIC S. epidermidis DSM-28765,S. epidermidis DSM-28765,0.5 µg/mL
same,MIC E. coli WT DSM-1116,E. coli WT DSM-1116,0.125 µg/mL
same,"MIC E. coli WT-3 [gyrA(S83L, D87G)]","[2]; fluoroquinolone-resistant mutant, Table 2a",0.5 µg/mL
same,"MIC E. coli WT-3 [gyrA(S83L, D87G)]","[2]; larger panel, Table 2b",0.5 µg/mL
same,MIC E. coli ΔtolC,E. coli ΔtolC,0.125 µg/mL
same,MIC P. aeruginosa ΔmexAB,P. aeruginosa ΔmexAB,0.5 µg/mL
